Measured values: ChEMBL document CHEMBL4152333, “Structure-activity relationships in fungal nucleobases transporters as dissected by the inhibitory effects of novel purine analogues” (Eur J Med Chem, 2018)
Active and inactive are the calls of the source. The calls are words filed in the database; no cut-off is given here.

Tests used:
[1] = Inhibition of fungal FcyB expressed in Aspergillus nidulans assessed as reduction in FcyB-mediated [2,8-3H]-adenine accumulation; set-up: species or system Fungi
[2] = biological target: Uric acid-xanthine permease (Emericella nidulans (strain FGSC A4 / ATCC 38163 / CBS 112.46 / NRRL194 / M139) (Aspergillus nidulans)) (UniProt Q07307); test: Inhibition of fungal UapA expressed in Aspergillus nidulans assessed as reduction in UapA-mediated [8-3H]-xanthine accumulation at 0.5 mM; conditions: Fungi
Uric acid-xanthine permease (Emericella nidulans (strain FGSC A4 / ATCC 38163 / CBS 112.46 / NRRL194 / M139) (Aspergillus nidulans)), sequence (Q07307 whole entry, looked up): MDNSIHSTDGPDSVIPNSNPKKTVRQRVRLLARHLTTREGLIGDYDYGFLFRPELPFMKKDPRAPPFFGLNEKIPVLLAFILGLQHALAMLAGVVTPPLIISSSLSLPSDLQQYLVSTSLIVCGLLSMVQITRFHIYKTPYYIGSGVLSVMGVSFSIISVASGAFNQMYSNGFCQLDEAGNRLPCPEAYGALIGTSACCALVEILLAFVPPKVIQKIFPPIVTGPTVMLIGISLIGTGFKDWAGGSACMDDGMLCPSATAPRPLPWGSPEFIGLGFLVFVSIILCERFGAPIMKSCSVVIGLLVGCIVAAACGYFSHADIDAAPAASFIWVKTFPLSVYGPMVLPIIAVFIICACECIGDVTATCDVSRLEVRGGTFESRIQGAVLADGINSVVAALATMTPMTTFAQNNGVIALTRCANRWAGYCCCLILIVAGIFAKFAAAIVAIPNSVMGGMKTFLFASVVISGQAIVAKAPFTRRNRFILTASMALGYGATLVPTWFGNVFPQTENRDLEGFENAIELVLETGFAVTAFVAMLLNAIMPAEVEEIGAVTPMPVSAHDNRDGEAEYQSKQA

[3] = system: Fungi; test: Inhibition of fungal FcyB expressed in Aspergillus nidulans assessed as FcyB-mediated [2,8-3H]-adenine accumulation rate at 500 uM relative to untreated control; set-up: scale not given: the % may be the effect or the level left
[4] = system: Fungi; test: Inhibition of fungal FcyB expressed in Aspergillus nidulans assessed as reduction in FcyB-mediated at 0.5 mM
[5] = biological target: T1, Uncharacterized protein (Emericella nidulans (strain FGSC A4 / ATCC 38163 / CBS 112.46 / NRRL194 / M139) (Aspergillus nidulans)) (UniProt G5EB00); test: Inhibition of fungal AzgA expressed in Aspergillus nidulans assessed as reduction in AzgA-mediated [2,8-3H]-adenine accumulation at 0.5 mM; conditions: Fungi
T1 sequence (whole entry): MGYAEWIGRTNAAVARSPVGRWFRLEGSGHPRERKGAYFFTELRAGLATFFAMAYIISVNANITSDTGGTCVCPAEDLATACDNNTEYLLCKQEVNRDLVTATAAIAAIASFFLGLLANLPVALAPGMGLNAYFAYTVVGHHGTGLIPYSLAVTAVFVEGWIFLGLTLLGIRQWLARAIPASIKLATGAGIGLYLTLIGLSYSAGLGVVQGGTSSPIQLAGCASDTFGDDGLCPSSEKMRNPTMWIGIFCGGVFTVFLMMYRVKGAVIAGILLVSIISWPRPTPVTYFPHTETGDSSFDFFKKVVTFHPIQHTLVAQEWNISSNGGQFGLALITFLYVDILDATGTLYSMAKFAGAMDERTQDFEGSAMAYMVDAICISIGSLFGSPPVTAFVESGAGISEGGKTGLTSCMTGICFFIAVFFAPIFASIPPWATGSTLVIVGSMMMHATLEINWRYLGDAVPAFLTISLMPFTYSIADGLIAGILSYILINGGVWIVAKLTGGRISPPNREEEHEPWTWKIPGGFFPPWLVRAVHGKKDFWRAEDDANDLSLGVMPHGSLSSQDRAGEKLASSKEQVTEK

[6] = biological target: T2, Uncharacterized protein (Emericella nidulans (strain FGSC A4 / ATCC 38163 / CBS 112.46 / NRRL194 / M139) (Aspergillus nidulans), UniProt G5EB00); test: Inhibition of fungal AzgA expressed in Aspergillus nidulans assessed as reduction in AzgA-mediated [2,8-3H]-adenine accumulation; set-up: species or system Fungi
T2 sequence (G5EB00 whole entry): T1 sequence (whole entry)

| Ki [1] [µM] | inhibition [2] | SMILES | other results |
| --- | --- | --- | --- |
| – | inactive | Nc1ccnc2c1nc(-c1ccncc1)n2Cc1ccccc1 | inhibition [4]: inactive |
| 42 | inactive | COc1ccc(OC)c(-c2nc3c(NCc4ccccc4)nccc3[nH]2)c1 | inhibition [5]: Active; Activity [3]: < 10% |
| 82 | inactive | Oc1ccccc1-c1nc2c(NCc3ccccc3)nccc2[nH]1 | inhibition [5]: Active; Ki [6]: 58 µM; Activity [3]: < 10% |
| – | inactive | Nc1ccnc2c1nc(-c1ccc([N+](=O)[O-])cc1)n2Cc1ccccc1 | inhibition [4]: inactive |
| – | inactive | COc1ccc(OC)c(-c2nc3c(N)ccnc3n2Cc2ccccc2)c1 | inhibition [4]: inactive |
| – | inactive | Nc1ccnc2c1nc(O)n2Cc1ccccc1 | inhibition [4]: inactive |
| – | inactive | Nc1ccnc2c1nc(-c1ccccc1O)n2Cc1ccccc1 | inhibition [4]: inactive |
| – | inactive | O=[N+]([O-])c1ccc(-c2nc3c(NCc4ccccc4)nccc3[nH]2)cc1 | – |
| – | inactive | CN1CCN(c2nccc3c2nc(-c2ccccc2O)n3Cc2ccccc2O)CC1 | inhibition [4]: inactive |
| – | inactive | Sc1nc2c(NCc3ccccc3)nccc2[nH]1 | – |
| – | inactive | Nc1ccnc2c1nc(S)n2Cc1ccccc1 | inhibition [4]: inactive |
| 74 | inactive | Oc1nc2c(NCc3ccccc3)nccc2[nH]1 | – |
| 72 | inactive | c1ccc(CNc2nccc3[nH]c(-c4ccncc4)nc23)cc1 | inhibition [5]: Active; Activity [3]: < 10% |

The remaining lines, values behind:

| SMILES | Ki [1] [µM] | inhibition [2] | other results |
| --- | --- | --- | --- |
| CN1CCN(c2nccc3[nH]c(-c4ccccc4O)nc23)CC1 | 49 | inactive | Activity [3]: < 10% |
| CC(C)n1cnc2c(NCc3ccccc3)nccc21 | 5 | – | – |
| Nc1[nH]cnc2ncnc1-2 [ADENINE] | 7 | – | – |
| CN1CCN(c2nccc3[nH]c(S)nc23)CC1 | – | inactive | – |
| CN1CCN(c2nccc3[nH]c(-c4ccncc4)nc23)CC1 | – | inactive | – |
| CN1CCN(c2nccc3c2nc(-c2ccncc2)n3Cc2ccncc2)CC1 | – | inactive | – |
| CN1CCN(c2nccc3[nH]c(O)nc23)CC1 | 19 | inactive | Activity [3]: < 10% |
| CN1CCN(c2nccc3c2ncn3C2CCCC2)CC1 | 38 | – | – |
| O=c1[nH]cnc2nc[nH]c12 [HYPOXANTHINE] | 11 | – | – |
| COc1ccc(OC)c(-c2nc3c(N4CCN(C)CC4)nccc3[nH]2)c1 | 100 | inactive | Activity [3]: < 10% |
| CN1CCN(c2nccc3[nH]c(-c4ccc([N+](=O)[O-])cc4)nc23)CC1 | 106 | inactive | inhibition [5]: Active |
